Where two headings read alike, the source gives them in different places.
How the values were obtained:
[1] = test system: wild-type EGFR cell lines (Calu3, H2073); experiment: Sytox Green live/dead cell phenotype assay, wild-type EGFR lines; type: cell-based; details: compared to AZD9291
[2] = test system: T790M EGFR cell lines (H1975, PC-9VanR); details: compared to AZD9291
[3] = test system: PC-9 (ex19del) tumor xenograft; experiment: PC-9
[4] = test system: EGFR L861Q, G719S and exon 19 insertion (I744-K745insKIPVAI); experiment: Phospho-EGFR immunoblot in transfected 293 cells, rare sensitive mutants; type: cell-based; details: 6 hours
[5] = test system: lines harboring EGFR T790M (H1975, HCC827/ER1, PC-9/BRc1 and H3255/XLR); details: independent laboratory
[6] = test system: advanced EGFRm+ T790M NSCLC; experiment: Radiographic tumor response; type: in vivo, human; details: for tumor shrinkage: 20 mg once daily
[7] = Preliminary clinical pharmacokinetics, AURA Phase 1; type: in vivo, human
[8] = test system: lines harboring non-T790M resistance: 11-18/ER (NRAS), HCC827/ER2 (MET amplification), HCC4006/ER (EMT); details: independent laboratory
[9] = test system: H1781 cells (VC insertion at G776 in exon 20 of HER2); experiment: Growth inhibition of HER2 mutant H1781 cells; type: cell-based; details: NCI-H1781, read-out: IC50, growth
[10] = test system: NCI-H820 cells; experiment: Large cell panel proliferation profiling study; type: cell-based; details: NCI-H820, read-out: IC50, proliferation
[11] = Blood glucose and insulin levels after single oral dose in rats; type: in vivo, rat; details: single oral dose of 200 mg/kg, over a 24 hour period
[12] = test system: phospho-EGFR (Tyr1173) in H1975 xenografts; experiment: Pharmacodynamics in H1975 xenografts; type: in vivo, mouse; details: single dose 5 mg/kg
[13] = biological target: HER2 (ErbB2) (Homo sapiens, UniProt P04626); experiment: Cellular HER2 phosphorylation; type: cell-based; details: three cellular approaches
[14] = test system: EGFR^L858R driven lung adenocarcinomas (C/L858R mice); experiment: C/L858R transgenic lung adenocarcinoma model
[15] = biological target: IGF-1R (Homo sapiens, UniProt P08069); experiment: Cellular IGF-1R phosphorylation assay; type: cell-based; details: cellular phosphorylation assay as surrogate
[16] = test system: EGFR^L858R + T790M driven lung adenocarcinomas (C/L+T mice); experiment: C/L+T transgenic lung adenocarcinoma model; details: AZD9291 5 mg/kg/day, afatinib 7.5 mg/kg/day, AZ5104 5 mg/kg/day; one to two weeks
[17] = test system: phospho-EGFR and downstream markers; details: 5mg/kg dosing
[18] = test system: Parental EGFRm+ lines (PC-9, H3255, HCC827, HCC4006, 11-18); experiment: Growth inhibition assay; type: cell-based; details: independent laboratory
[19] = Pharmacokinetics after oral dosing in the mouse; type: in vivo
[20] = test system: EBC-1 cells; experiment: Large cell panel proliferation profiling study; type: cell-based; details: Homo sapiens, EBC-1, read-out: IC50, proliferation
[21] = test system: approximately 280 other kinases; experiment: Commercial biochemical kinome panel
[22] = test system: A431 xenografts; details: 5 mg/kg/day
[23] = Adverse events and blood glucose in two patients, AURA Phase 1; type: in vivo, human
[24] = Body weight of xenograft-bearing mice on daily dosing; type: in vivo, mouse; details: daily dosing for 200 days, PC-9 and H1975 studies
[25] = test system: EGFR in mutant and wild-type cell lines; experiment: In vitro EGFR phosphorylation assay, mutant and wild-type cell lines overall; details: compared to AZD9291
[26] = test system: mutant and wild-type EGFR cell lines; experiment: Sytox phenotypic assay across cell lines; type: cell-based
[27] = biological target: EGFR variant III (EGFRvIII) (Homo sapiens, UniProt P00533, DELINS30-297G); experiment: Phospho-EGFR immunoblot in transfected 293 cells, EGFRvIII; type: cell-based; details: 6 hours
[28] = biological target: wild-type EGFR (A431, LOVO, NCI-H2073) (Homo sapiens, UniProt P00533); experiment: In vitro EGFR phosphorylation assay; type: cell-based; details: read-out: potency against wild-type EGFR
[29] = test system: EGFR^L858R + T790M driven lung adenocarcinomas (C/L+T mice); details: cited from earlier work
[30] = test system: EGFR^L858R driven lung adenocarcinomas (C/L858R mice); details: cited from earlier work
[31] = patients, AZD9291 mesylate 20 mg oral, preliminary

HER2 (ErbB2), sequence (P04626 676-1255 limits assumed): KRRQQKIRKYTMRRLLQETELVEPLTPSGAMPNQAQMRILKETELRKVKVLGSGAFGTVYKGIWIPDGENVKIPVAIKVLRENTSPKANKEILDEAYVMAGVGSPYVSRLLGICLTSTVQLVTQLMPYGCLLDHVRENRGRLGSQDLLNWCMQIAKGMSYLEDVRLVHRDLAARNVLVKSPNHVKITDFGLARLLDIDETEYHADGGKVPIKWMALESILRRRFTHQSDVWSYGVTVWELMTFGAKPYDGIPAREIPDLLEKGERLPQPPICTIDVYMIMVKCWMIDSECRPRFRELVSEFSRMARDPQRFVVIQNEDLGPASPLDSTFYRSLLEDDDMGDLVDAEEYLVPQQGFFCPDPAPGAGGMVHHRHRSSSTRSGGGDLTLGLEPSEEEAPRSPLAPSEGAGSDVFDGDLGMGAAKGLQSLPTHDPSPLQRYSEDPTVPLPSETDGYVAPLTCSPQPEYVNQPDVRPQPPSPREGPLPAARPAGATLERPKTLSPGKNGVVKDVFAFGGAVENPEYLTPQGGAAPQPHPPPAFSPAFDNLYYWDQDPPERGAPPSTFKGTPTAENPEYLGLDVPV
IGF-1R, sequence (P08069 31-1367, species assumed): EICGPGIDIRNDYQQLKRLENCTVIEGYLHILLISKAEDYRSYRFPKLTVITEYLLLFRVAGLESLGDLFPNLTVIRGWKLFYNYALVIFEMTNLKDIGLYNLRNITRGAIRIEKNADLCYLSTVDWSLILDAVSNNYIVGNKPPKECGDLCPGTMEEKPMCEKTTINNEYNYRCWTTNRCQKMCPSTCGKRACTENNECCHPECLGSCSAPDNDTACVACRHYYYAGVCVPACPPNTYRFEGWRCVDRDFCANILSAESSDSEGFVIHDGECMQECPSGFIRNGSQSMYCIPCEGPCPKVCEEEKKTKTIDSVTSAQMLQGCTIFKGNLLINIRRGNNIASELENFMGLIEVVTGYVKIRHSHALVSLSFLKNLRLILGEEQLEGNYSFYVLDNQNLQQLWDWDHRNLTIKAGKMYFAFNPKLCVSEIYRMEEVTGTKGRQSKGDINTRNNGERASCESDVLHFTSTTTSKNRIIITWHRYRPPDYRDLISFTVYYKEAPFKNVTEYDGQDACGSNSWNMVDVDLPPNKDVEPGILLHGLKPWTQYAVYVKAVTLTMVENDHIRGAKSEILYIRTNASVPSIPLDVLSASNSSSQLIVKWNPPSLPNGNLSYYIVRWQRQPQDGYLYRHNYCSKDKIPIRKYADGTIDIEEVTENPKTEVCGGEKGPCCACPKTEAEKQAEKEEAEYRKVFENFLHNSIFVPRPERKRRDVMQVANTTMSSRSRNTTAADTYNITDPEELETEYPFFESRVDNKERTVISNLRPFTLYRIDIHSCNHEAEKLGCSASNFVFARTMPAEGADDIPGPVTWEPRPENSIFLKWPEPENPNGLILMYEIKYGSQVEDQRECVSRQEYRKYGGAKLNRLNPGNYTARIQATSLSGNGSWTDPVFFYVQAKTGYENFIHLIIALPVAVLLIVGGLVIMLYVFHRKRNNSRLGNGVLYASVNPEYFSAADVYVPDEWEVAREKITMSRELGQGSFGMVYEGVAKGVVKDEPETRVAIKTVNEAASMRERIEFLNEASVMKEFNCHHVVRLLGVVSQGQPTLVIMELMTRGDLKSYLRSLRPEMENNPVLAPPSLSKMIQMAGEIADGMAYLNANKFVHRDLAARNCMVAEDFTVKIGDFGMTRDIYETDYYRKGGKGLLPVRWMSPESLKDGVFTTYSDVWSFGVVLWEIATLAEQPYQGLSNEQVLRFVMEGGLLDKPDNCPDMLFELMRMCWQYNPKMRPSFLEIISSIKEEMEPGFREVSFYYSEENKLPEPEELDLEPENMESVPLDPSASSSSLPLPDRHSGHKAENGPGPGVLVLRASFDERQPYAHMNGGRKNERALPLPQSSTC

In the case of COc1cc2ncnc(Nc3ccc(F)c(Cl)c3)c2cc1NC(=O)/C=C/CN1CCCCC1 [dacomitinib], the “potency towards wild-type EGFR, Sytox” value [1] is reported as “much greater potency towards wild-type EGFR” and the “activity against T790M lines, Sytox” value [2] is reported as “much less activity against T790M lines”.
In the case of COc1cc2ncnc(Nc3ccc(F)c(Cl)c3)c2cc1OCCCN1CCOCC1 [gefitinib, reference compound], the “time until tumors began to re-grow” value ([3]; 6.25 mg/kg/day) is reported as “approximately 90 days” and the “tumor regression” value ([3]; 6.25 mg/kg/day, compared with AZD9291 5 mg/kg) is reported as “less tumor regression”.
For C=CC(=O)Nc1cc(Nc2nccc(-c3cn(C)c4ccccc34)n2)c(OC)cc1N(C)CCN(C)C [AZD9291], the “effect on phospho-EGFR of L861Q, G719S and exon 19 insertion” value [4] was “somewhat less potent compared with the AZ5104 metabolite”, the “activity against lines harboring EGFR T790M” value [5] was “low nanomolar activity” and the duration of response ([6]; both patients, 20 mg/day) was “approximately 9 months”. For the same compound, the progression-free time ([6]; both patients, 20 mg/day, RECIST 1.1) was “approximately 11 months”, the tumor shrinkage ([6]; first patient, scan 1) was 39.7% and the tumor shrinkage ([6]; first patient, scan 2) was 48.3%. For the same compound, the tumor shrinkage ([6]; first patient, scan 3) was 48.3%, the tumor shrinkage ([6]; first patient, scan 4) was 48.3% and the tumor shrinkage ([6]; first patient, scan 5) was 51.7%. It also gave a tumor shrinkage ([6]; second patient, scan 1) of 38%, a tumor shrinkage ([6]; second patient, scan 2) of 39.3% and a tumor shrinkage ([6]; second patient, scan 3) of 56.7%. For the same compound, the tumor shrinkage ([6]; second patient, scan 4) was 62%, the tumor shrinkage ([6]; second patient, scan 5) was 59.3% and the “tumors with no visible tumor” value ([3]; following 40 daily doses with 5 mg/kg, sustained out to 200 days) was 8 of 8. For the same compound, the “lowest dose with tumor shrinkage observed” value ([3]; once daily, after 14 days) was 2.5 mg/kg/day, the half-life ([7]; human, plasma, po, 20 mg) was no less than 50 h and the “activity against lines harboring non-T790M resistance” value [8] was “not effective”. For the same compound, the IC50 [9] was 80 nM, the IC50 [10] was roughly 1000 nM and the “change in blood glucose or insulin levels” value [11] was “did not cause a significant change”. The “phospho-EGFR and downstream signalling” value ([12]; after 6 hours) was “strongly inhibited”, the phospho-EGFR staining ([12]; after the 30 hour time point) was “remained significantly diminished” and the “inhibition of phosphorylation of HER2” value [13] was “moderate potency levels”. The “reduction in tumor volume by MRI” value ([14]; AZD9291 5 mg/kg/day, afatinib 7.5 mg/kg/day, 5 of 5 mice) was roughly 80%, the “activity towards IGF-1R” value [15] was “did not exhibit significant activity” and the “tumor response” value [16] was “significant tumor shrinkage”. For the same compound, the “target inhibition in treated tumors” value [17] was “observed target inhibition”, the “sensitivity of parental EGFRm+ lines” value [18] was “sensitive” and the bioavailability [19] was “good bioavailability”. The clearance [19] was “moderate clearance”, the tissue distribution [19] was “widely distributed in tissues” and the half-life ([19]; plasma, po) was roughly 3 h. For the same compound, the IC50 [20] was roughly 1000 nM, the “off-target kinase activity / secondary target profile” value ([21]; 1 μM) was “minimal off-target kinase activity” and the “inhibition at 1 μM” value ([21]; ErbB2/4, ACK1, ALK, BLK, BRK, MLK1 and MNK2) was “greater than 60%”. The tumor growth inhibition [22] was “moderate tumor growth inhibition”, the diarrhea events ([23]; 20 mg once daily) was “one reported CTCAE Grade 1 diarrhea” and the rash events ([23]; 20 mg once daily) was “no rash events”. The blood glucose levels ([23]; during the study) was “No significant aberration” and the body weight loss [24] was “less than 5 % of starting body weight”.
In the case of C=CC(=O)Nc1cc(Nc2nccc(-c3cn(C)c4ccccc34)n2)c(OC)cc1N(C)CCNC [AZ7550], the half-life [7, 31] is reported as “at least 50 hours”, the “potency and profile against mutant and wild-type cell lines” value [25] is reported as “very similar potency and profile to AZD9291” and the “total exposure levels (AUC) compared to the parent compound” value ([19]; circulating metabolite in plasma) is reported as “approximately 68%”. For the same compound, the “potency across cell lines in phenotypic assay” value [26] was “broadly similar”.
For CNC(=O)CN1CCC(Oc2cc3c(Nc4cccc(Cl)c4F)ncnc3cc2OC)CC1 [AZD8931], the “sensitivity of parental EGFRm+ lines” value [18] was “sensitive”.
With C=CC(=O)Nc1cc(Nc2nccc(-c3c[nH]c4ccccc34)n2)c(OC)cc1N(C)CCN(C)C [AZ5104] the half-life [7, 31] was “at least 50 hours”, the “potency against EGFRvIII mutant” value [27] was “higher level of activity” and the “inhibition of phosphorylation of HER2” value [13] was “more potency than AZD9291”. The “tumor response” value ([14]; AZ5104 5 mg/kg/day) was “effective in shrinking tumors”, the “activity towards IGF-1R” value [15] was “did not exhibit significant activity” and the “tumor response” value [16] was “effective in shrinking tumors”. The IC50 [28] was 33 nM and the “potency across cell lines in phenotypic assay” value ([26]; compared to AZD9291) was “much greater potency across cell lines”.
For C#Cc1cccc(Nc2ncnc3cc(OCCOC)c(OCCOC)cc23)c1 [erlotinib], the “sensitivity of parental EGFRm+ lines” value [18] is listed as “sensitive”, the tumor sensitivity [29] is listed as “resistant” and the tumor sensitivity [30] is listed as “sensitive”.

From publication PMC4315625 (Cancer discovery, 2014)
